PubChem BioAssay AID1745844 (Carcinogenic Potency Database (CPDB), 2022)
“And” between values parts separate entries of the source, which are not always exact repeats. Identical values can stand only once. The source made the active and inactive calls. How the calls were made is not given here.

Tested on: rodent lifetime carcinogenesis bioassay, tumor incidence TD50
Assay: carcinogenic potency in animals, long-term in vivo studies, CPDB compilation (AID 1745844)

For `N=C1C=CC(=C(c2ccc(N)cc2)c2ccc(N)cc2)C=C1`, the carcinogen call (hamster, strain Syrian Golden, females, by gavage, site: any site (literature study), lesion: several types, types named in the paper, dosed 84 weeks, study length 84 weeks) was “negative (inactive)”, the carcinogen call (hamster, strain Syrian Golden, males, by gavage, site: any site (literature study), lesion: several types, types named in the paper, dosed 84 weeks, study length 84 weeks) was “negative (inactive)” and the TD50 (mouse, strain B6C3F1, females, in feed, site: Harderian gland, lesion: adenoma, NOS + carcinoma, NOS + cystadenoma, NOS, dosed 103 weeks, study length 105 weeks) was 388 mg/kg/day. It also gave a TD50 (mouse, strain B6C3F1, females, in feed, site: Harderian gland, lesion: adenoma, NOS + cystadenoma, NOS, dosed 103 weeks, study length 105 weeks) of 316 mg/kg/day, a TD50 (mouse, strain B6C3F1, females, in feed, site: Harderian gland, lesion: adenoma, dosed 103 weeks, study length 105 weeks) of 548 mg/kg/day and a TD50 (mouse, strain B6C3F1, females, in feed, site: adrenal gland + liver, lesion: pheochromocytoma + pheochromocytoma, malignant + hepatocellular carcinoma, dosed 103 weeks, study length 105 weeks) of 28.8 mg/kg/day. For the same compound, the TD50 (mouse, strain B6C3F1, females, in feed, site: adrenal gland, lesion: pheochromocytoma + pheochromocytoma, malignant, dosed 103 weeks, study length 105 weeks) was 90.6 mg/kg/day, the TD50 (mouse, strain B6C3F1, females, in feed, site: all sites, lesion: malignant lymphoma, histiocytic type + malignant lymphoma, mixed type + malignant lymphoma, lymphocytic type + malignant lymph, dosed 103 weeks, study length 105 weeks) was 62.2 mg/kg/day and the TD50 (mouse, strain B6C3F1, females, in feed, site: all sites, lesion: malignant lymphoma, histiocytic type, dosed 103 weeks, study length 105 weeks) was 380 mg/kg/day. It also gave a TD50 (mouse, strain B6C3F1, females, in feed, site: all sites, lesion: malignant lymphoma, lymphocytic type, dosed 103 weeks, study length 105 weeks) of 151 mg/kg/day, a TD50 (mouse, strain B6C3F1, females, in feed, site: any site (literature study), lesion: several types, types named in the paper, dosed 103 weeks, study length 105 weeks) of 23.4 mg/kg/day and a TD50 (mouse, strain B6C3F1, females, in feed, site: liver, lesion: hepatocellular adenoma + hepatocellular carcinoma + neoplastic nodule, dosed 103 weeks, study length 105 weeks) of 20.3 mg/kg/day. For the same compound, the TD50 (mouse, strain B6C3F1, females, in feed, site: liver, lesion: hepatocellular adenoma + hepatocellular carcinoma, dosed 103 weeks, study length 105 weeks) was 20.3 mg/kg/day, the TD50 (mouse, strain B6C3F1, females, in feed, site: liver, lesion: hepatocellular adenoma, dosed 103 weeks, study length 105 weeks) was 35.9 mg/kg/day and the TD50 (mouse, strain B6C3F1, females, in feed, site: liver, lesion: hepatocellular carcinoma, dosed 103 weeks, study length 105 weeks) was 32.3 mg/kg/day. The TD50 (mouse, strain B6C3F1, females, in feed, site: lung, lesion: alveolar/bronchiolar adenoma + alveolar/bronchiolar carcinoma, dosed 103 weeks, study length 105 weeks) was 302 mg/kg/day, the TD50 (mouse, strain B6C3F1, females, in feed, site: lung, lesion: alveolar/bronchiolar adenoma, dosed 103 weeks, study length 105 weeks) was 326 mg/kg/day and the TD50 (mouse, strain B6C3F1, males, in feed, site: all sites, lesion: malignant lymphoma, mixed type, dosed 103 weeks, study length 104 weeks) was 610 mg/kg/day. It also gave a TD50 (mouse, strain B6C3F1, males, in feed, site: any site (literature study), lesion: several types, types named in the paper, dosed 103 weeks, study length 104 weeks) of 222 mg/kg/day, a TD50 (mouse, strain B6C3F1, males, in feed, site: liver, lesion: hepatocellular adenoma + hepatocellular carcinoma + neoplastic nodule, dosed 103 weeks, study length 104 weeks) of 116 mg/kg/day and a TD50 (mouse, strain B6C3F1, males, in feed, site: liver, lesion: hepatocellular adenoma + hepatocellular carcinoma, dosed 103 weeks, study length 104 weeks) of 116 mg/kg/day. For the same compound, the TD50 (mouse, strain B6C3F1, males, in feed, site: liver, lesion: hepatocellular carcinoma, dosed 103 weeks, study length 104 weeks) was 127 mg/kg/day, the TD50 (rat, strain Fischer 344, females, in feed, site: Zymbal's gland, lesion: carcinoma, NOS, dosed 103 weeks, study length 104 weeks) was 190 mg/kg/day and the TD50 (rat, strain Fischer 344, females, in feed, site: any site (literature study), lesion: several types, types named in the paper, dosed 103 weeks, study length 104 weeks) was 17.8 mg/kg/day. The TD50 (rat, strain Fischer 344, females, in feed, site: liver, lesion: hepatocellular adenoma + hepatocellular carcinoma + neoplastic nodule, dosed 103 weeks, study length 104 weeks) was 189 mg/kg/day, the TD50 (rat, strain Fischer 344, females, in feed, site: liver, lesion: hepatocellular carcinoma + neoplastic nodule, dosed 103 weeks, study length 104 weeks) was 189 mg/kg/day and the TD50 (rat, strain Fischer 344, females, in feed, site: mammary gland, lesion: adenocarcinoma, NOS + adenoma, NOS + fibroadenoma, dosed 103 weeks, study length 104 weeks) was 25.4 mg/kg/day. For the same compound, the TD50 (rat, strain Fischer 344, females, in feed, site: mammary gland, lesion: adenocarcinoma, NOS + adenoma, NOS, dosed 103 weeks, study length 104 weeks) was 156 mg/kg/day, the TD50 (rat, strain Fischer 344, females, in feed, site: mammary gland, lesion: adenocarcinoma, NOS, dosed 103 weeks, study length 104 weeks) was 232 mg/kg/day and the TD50 (rat, strain Fischer 344, females, in feed, site: mammary gland, lesion: fibroadenoma, dosed 103 weeks, study length 104 weeks) was 27.9 mg/kg/day. For the same compound, the TD50 (rat, strain Fischer 344, females, in feed, site: subcutaneous tissue + thyroid gland + Zymbal's gland, lesion: fibroma + follicular-cell adenoma + follicular-cell carcinoma + carcinoma, NOS, dosed 103 weeks, study length 104 weeks) was 32.2 mg/kg/day, the TD50 (rat, strain Fischer 344, females, in feed, site: subcutaneous tissue, lesion: fibroma, dosed 103 weeks, study length 104 weeks) was 44.5 mg/kg/day and the TD50 (rat, strain Fischer 344, females, in feed, site: subcutaneous tissue, lesion: fibrosarcoma + fibroma + sarcoma, NOS, dosed 103 weeks, study length 104 weeks) was 40.9 mg/kg/day. It also gave a TD50 (rat, strain Fischer 344, females, in feed, site: subcutaneous tissue, lesion: fibrosarcoma + fibroma, dosed 103 weeks, study length 104 weeks) of 42.8 mg/kg/day, a TD50 (rat, strain Fischer 344, females, in feed, site: thyroid gland, lesion: follicular-cell adenoma + follicular-cell carcinoma, dosed 103 weeks, study length 104 weeks) of 154 mg/kg/day and a TD50 (rat, strain Fischer 344, females, in feed, site: thyroid gland, lesion: follicular-cell adenoma, dosed 103 weeks, study length 104 weeks) of 318 mg/kg/day. The TD50 (rat, strain Fischer 344, females, in feed, site: uterus, lesion: endometrial stromal sarcoma, dosed 103 weeks, study length 104 weeks) was 133 mg/kg/day, the TD50 (rat, strain Fischer 344, males, in feed, site: Zymbal's gland, lesion: carcinoma, NOS, dosed 103 weeks, study length 104 weeks) was 124 mg/kg/day and the TD50 (rat, strain Fischer 344, males, in feed, site: any site (literature study), lesion: several types, types named in the paper, dosed 103 weeks, study length 104 weeks) was 15.7 mg/kg/day. It also gave a TD50 (rat, strain Fischer 344, males, in feed, site: body cavities + multiple sites + multiple organs + tunica vaginalis, lesion: mesothelioma, NOS + mesothelioma, malignant, dosed 103 weeks, study length 104 weeks) of 184 mg/kg/day, a TD50 (rat, strain Fischer 344, males, in feed, site: liver + skin + subcutaneous tissue + thyroid gland + Zymbal's gland, lesion: hepatocellular carcinoma + sebaceous adenoma + squamous-cell carcinoma + trichoepithelioma + fibroma + follicular-cell adenoma + fol, dosed 103 weeks, study length 104 weeks) of 21.2 mg/kg/day and a TD50 (rat, strain Fischer 344, males, in feed, site: liver, lesion: bile duct adenoma + bile duct carcinoma, dosed 103 weeks, study length 104 weeks) of 557 mg/kg/day. It also gave a TD50 (rat, strain Fischer 344, males, in feed, site: liver, lesion: hepatocellular adenoma + hepatocellular carcinoma + neoplastic nodule, dosed 103 weeks, study length 104 weeks) of 41.5 mg/kg/day, a TD50 (rat, strain Fischer 344, males, in feed, site: liver, lesion: hepatocellular carcinoma + neoplastic nodule, dosed 103 weeks, study length 104 weeks) of 41.5 mg/kg/day and a TD50 (rat, strain Fischer 344, males, in feed, site: liver, lesion: hepatocellular carcinoma, dosed 103 weeks, study length 104 weeks) of 140 mg/kg/day. For the same compound, the TD50 (rat, strain Fischer 344, males, in feed, site: liver, lesion: neoplastic nodule, dosed 103 weeks, study length 104 weeks) was 62.2 mg/kg/day, the TD50 (rat, strain Fischer 344, males, in feed, site: lung, lesion: alveolar/bronchiolar adenoma + alveolar/bronchiolar carcinoma, dosed 103 weeks, study length 104 weeks) was 254 mg/kg/day and the TD50 (rat, strain Fischer 344, males, in feed, site: lung, lesion: alveolar/bronchiolar adenoma, dosed 103 weeks, study length 104 weeks) was 281 mg/kg/day. For the same compound, the TD50 (rat, strain Fischer 344, males, in feed, site: pancreatic islets, lesion: islet-cell adenoma + islet-cell carcinoma, dosed 103 weeks, study length 104 weeks) was 152 mg/kg/day, the TD50 (rat, strain Fischer 344, males, in feed, site: pancreatic islets, lesion: islet-cell carcinoma, dosed 103 weeks, study length 104 weeks) was 252 mg/kg/day and the TD50 (rat, strain Fischer 344, males, in feed, site: skin, lesion: basal-cell carcinoma, dosed 103 weeks, study length 104 weeks) was 385 mg/kg/day. For the same compound, the TD50 (rat, strain Fischer 344, males, in feed, site: skin, lesion: sebaceous adenoma, dosed 103 weeks, study length 104 weeks) was 424 mg/kg/day, the TD50 (rat, strain Fischer 344, males, in feed, site: skin, lesion: squamous-cell carcinoma + squamous-cell papilloma, dosed 103 weeks, study length 104 weeks) was 93.8 mg/kg/day and the TD50 (rat, strain Fischer 344, males, in feed, site: skin, lesion: squamous-cell carcinoma, dosed 103 weeks, study length 104 weeks) was 130 mg/kg/day. The TD50 (rat, strain Fischer 344, males, in feed, site: skin, lesion: trichoepithelioma, dosed 103 weeks, study length 104 weeks) was 221 mg/kg/day, the TD50 (rat, strain Fischer 344, males, in feed, site: subcutaneous tissue, lesion: fibroma, dosed 103 weeks, study length 104 weeks) was 35.3 mg/kg/day and the TD50 (rat, strain Fischer 344, males, in feed, site: subcutaneous tissue, lesion: fibrosarcoma + fibroma + sarcoma, NOS, dosed 103 weeks, study length 104 weeks) was 33.4 mg/kg/day. The TD50 (rat, strain Fischer 344, males, in feed, site: subcutaneous tissue, lesion: fibrosarcoma + fibroma, dosed 103 weeks, study length 104 weeks) was 33 mg/kg/day, the TD50 (rat, strain Fischer 344, males, in feed, site: testis, lesion: interstitial-cell tumor, dosed 103 weeks, study length 104 weeks) was 15.6 mg/kg/day and the TD50 (rat, strain Fischer 344, males, in feed, site: thyroid gland, lesion: follicular-cell adenoma + follicular-cell carcinoma, dosed 103 weeks, study length 104 weeks) was 57 mg/kg/day. The TD50 (rat, strain Fischer 344, males, in feed, site: thyroid gland, lesion: follicular-cell adenoma, dosed 103 weeks, study length 104 weeks) was 176 mg/kg/day, the TD50 (rat, strain Fischer 344, males, in feed, site: thyroid gland, lesion: follicular-cell carcinoma, dosed 103 weeks, study length 104 weeks) was 73.9 mg/kg/day and the carcinogen call (rat, strain Sprague-Dawley, females, by gavage, site: any site (literature study), lesion: several types, types named in the paper, dosed 127 weeks, study length 127 weeks) was “negative (inactive)”. For the same compound, the carcinogen call (rat, strain Sprague-Dawley, males, by gavage, site: any site (literature study), lesion: several types, types named in the paper, dosed 124 weeks, study length 124 weeks) was “negative (inactive)”.

For `Cl`, the TD50 (rat, strain Fischer 344, males, in feed, site: adrenal medulla, lesion: pheochromocytoma, dosed 104 weeks, study length 104 weeks) was 6210 mg/kg/day (inactive), the TD50 (rat, strain Fischer 344, males, in feed, site: mammary gland, lesion: fibroadenoma, dosed 104 weeks, study length 104 weeks) was 33500 mg/kg/day (inactive) and the carcinogen call (rat, strain Sprague-Dawley, males, inhaled, site: liver, lesion: hepatocellular carcinoma, dosed 128 weeks, study length 128 weeks) was “negative (inactive)”. The carcinogen call (rat, strain Sprague-Dawley, males, inhaled, site: nasal mucosa, lesion: one or several types, types not named, dosed 128 weeks, study length 128 weeks) was “negative (inactive)” and the TD50 (rat, strain Wistar-random, females, in feed, site: urinary bladder, lesion: transitional-cell papilloma, dosed 130 weeks, study length 130 weeks) was 79500 mg/kg/day.

For `Nc1ccc(O)c(N)c1`, the carcinogen call (mouse, strain B6C3F1, females, by gavage, site: any site (literature study), lesion: several types, types named in the paper, dosed 103 weeks, study length 104 weeks) was “negative (inactive)”, the TD50 (mouse, strain B6C3F1, females, by gavage, site: liver, lesion: hepatocellular adenoma + hepatocellular carcinoma + neoplastic nodule, dosed 103 weeks, study length 104 weeks) was 2890 mg/kg/day and the TD50 (mouse, strain B6C3F1, females, by gavage, site: lung, lesion: alveolar/bronchiolar adenoma + alveolar/bronchiolar carcinoma, dosed 103 weeks, study length 104 weeks) was 239 mg/kg/day. For the same compound, the TD50 (mouse, strain B6C3F1, males, by gavage, site: kidney, lesion: tubule adenoma, dosed 103 weeks, study length 104 weeks) was 320 mg/kg/day and 143 mg/kg/day, the TD50 (mouse, strain B6C3F1, males, by gavage, site: liver, lesion: hepatocellular adenoma + hepatocellular carcinoma + neoplastic nodule, dosed 103 weeks, study length 104 weeks) was 164 mg/kg/day and the TD50 (mouse, strain B6C3F1, males, by gavage, site: lung, lesion: alveolar/bronchiolar adenoma + alveolar/bronchiolar carcinoma, dosed 103 weeks, study length 104 weeks) was 194 mg/kg/day. The TD50 (rat, strain Fischer 344, females, by gavage, site: any site (literature study), lesion: several types, types named in the paper, dosed 103 weeks, study length 104 weeks) was 46.3 mg/kg/day (inactive) and the TD50 (rat, strain Fischer 344, males, by gavage, site: any site (literature study), lesion: several types, types named in the paper, dosed 103 weeks, study length 104 weeks) was 543 mg/kg/day (inactive).
